Source: patent US6673745B2, “Herbicidal 3,5-difluoropyridines” (BASF Aktiengesellschaft, priority 1997, dated 2004)

Tests used:
Experiment in all cases: pre-emergence herbicidal test
Format in all cases: in vivo
[1] = tested on: Glycine max (GLXMA)
Description: (§1) To evaluate their herbicidal activity, compounds according to the invention are tested using a representative range of plants: […] The pre-emergence tests involve spraying a liquid formulation of the compound onto the soil in which the seeds of the plant species mentioned above has recently been sown. The soil used in the tests is a prepared horticultural loam. […] In these tests untreated sown soil are used as controls.

[2] = tested on: Alopecurus myosuroides (ALOMY); conditions: second assessment 21 days after treatment
Description: as §1

[3] = tested on: Setaria viridis (SETVI); conditions: second assessment 21 days after treatment
Description: as §1

[4] = tested on: Zea mays (ZEAMX)
Description: as §1

[5] = tested on: Triticum aestivum (TRZAW)
Description: as §1

[6] = tested on: Abutilon theophrasti (ABUTH); conditions: second assessment 21 days after treatment
Description: as §1

[7] = tested on: Matricaria inodora (MATIN); conditions: second assessment 21 days after treatment
Description: as §1

[8] = tested on: Ipomoea hederacea (IPOHE); conditions: second assessment 21 days after treatment
Description: as §1

[9] = tested on: Ambrosia artemisiifolia (AMBEL); conditions: second assessment 21 days after treatment
Description: as §1

[10] = 0.0125 kg/ha, first assessment 10 days after treatment
[11] = 0.0125 kg/ha, second assessment 21 days after treatment
[12] = 0.025 kg/ha, first assessment 10 days after treatment
[13] = 0.025 kg/ha, second assessment 21 days after treatment
[14] = 0.100 kg/ha, first assessment 10 days after treatment
[15] = 0.100 kg/ha, second assessment 21 days after treatment
[16] = 0.400 kg/ha, first assessment 10 days after treatment
[17] = 0.400 kg/ha, second assessment 21 days after treatment

Cc1c(F)c(Oc2cccc(C(F)(F)F)c2)nc(-c2ccc(C(F)(F)F)cc2)c1F [Example 2]
GLXMA rating [1, 10]: 0 (0 - No effect)
GLXMA rating [1, 11]: 2 (2 - Slight effect)
GLXMA rating [1, 12]: 1 (1 - Trace effect)
GLXMA rating [1, 13]: 2 (2 - Slight effect)
GLXMA rating [1, 14]: 3 (3 - Moderate effect)
GLXMA rating [1, 15]: 4 (4 - Injury)
GLXMA rating [1, 16]: 6 (6 - Herbicidal effect)
GLXMA rating [1, 17]: 7 (7 - Good herbicidal effect)
ALOMY rating ([2]; 0.0125 kg/ha): 2 (2 - Slight effect)
ALOMY rating ([2]; 0.025 kg/ha): 3 (3 - Moderate effect)
ALOMY rating ([2]; 0.400 kg/ha): 9 (9 - Complete kill)
SETVI rating ([3]; 0.0125 kg/ha): 5 (5 - Definite injury)
SETVI rating ([3]; 0.025 kg/ha): 8 (8 - Approaching complete kill)
SETVI rating ([3]; 0.100 kg/ha): 9 (9 - Complete kill)
SETVI rating ([3]; 0.400 kg/ha): 9 (9 - Complete kill)
ZEAMX rating [4, 10]: 0 (0 - No effect)
ZEAMX rating [4, 11]: 0 (0 - No effect)
ZEAMX rating [4, 12]: 1 (1 - Trace effect)
ZEAMX rating [4, 13]: 1 (1 - Trace effect)
ZEAMX rating [4, 14]: 2 (2 - Slight effect)
ZEAMX rating [4, 15]: 2 (2 - Slight effect)
ZEAMX rating [4, 16]: 3 (3 - Moderate effect)
ZEAMX rating [4, 17]: 3 (3 - Moderate effect)
TRZAW rating [5, 10]: 1 (1 - Trace effect)
TRZAW rating [5, 11]: 0 (0 - No effect)
TRZAW rating [5, 12]: 1 (1 - Trace effect)
TRZAW rating [5, 13]: 0 (0 - No effect)
TRZAW rating [5, 14]: 1 (1 - Trace effect)
TRZAW rating [5, 15]: 1 (1 - Trace effect)
TRZAW rating [5, 16]: 4 (4 - Injury)
TRZAW rating [5, 17]: 5 (5 - Definite injury)
ABUTH rating ([6]; 0.0125 kg/ha): 0 (0 - No effect)
ABUTH rating ([6]; 0.025 kg/ha): 1 (1 - Trace effect)
ABUTH rating ([6]; 0.100 kg/ha): 3 (3 - Moderate effect)
ABUTH rating ([6]; 0.400 kg/ha): 8 (8 - Approaching complete kill)
MATIN rating ([7]; 0.0125 kg/ha): 7 (7 - Good herbicidal effect)
MATIN rating ([7]; 0.025 kg/ha): 8 (8 - Approaching complete kill)
MATIN rating ([7]; 0.100 kg/ha): 8 (8 - Approaching complete kill)
MATIN rating ([7]; 0.400 kg/ha): 9 (9 - Complete kill)
IPOHE rating ([8]; 0.0125 kg/ha): 1 (1 - Trace effect)
IPOHE rating ([8]; 0.025 kg/ha): 2 (2 - Slight effect)
IPOHE rating ([8]; 0.100 kg/ha): 3 (3 - Moderate effect)
IPOHE rating ([8]; 0.400 kg/ha): 7 (7 - Good herbicidal effect)
AMBEL rating ([9]; 0.0125 kg/ha): 4 (4 - Injury)
AMBEL rating ([9]; 0.025 kg/ha): 5 (5 - Definite injury)
AMBEL rating ([9]; 0.100 kg/ha): 5 (5 - Definite injury)
AMBEL rating ([9]; 0.400 kg/ha): 9 (9 - Complete kill)
